Here are results for 10 compounds from patent US11753407B2, “Compounds for treating spinal muscular atrophy” (PTC Therapeutics, Inc., priority 2012, dated 2023).

Each structure is given as a SMILES string.

Experiment [1] relates to SMN2 minigene mRNA (SMN2-A minigene) in HEK293H cells. Nature of the experiment: SMN2 minigene mRNA splicing RT-qPCR assay in cultured cells. Type of experiment: cell-based, human. The settings on record: Homo sapiens, HEK293-H; concentration increasing full length SMN2 mRNA 1.5-fold relative to vehicle-treated cells; HEK293H cells with SMN2-A minigene, 24 hours, 7-point concentration data; read-out: EC1.5x for production of full length SMN2 mRNA. The protocol: The reverse transcription-quantitative PCR-based (RT-qPCR) assay is used to quantify the level of the full length SMN2 minigene mRNA containing SMN2 exon 7 in a HEK293H cell line stably transfected with said minigene and treated with a test compound.
Protocol. HEK293H cells stably transfected with the SMN2-A minigene construct described above (10,000 cells/well) are seeded in 200 μL of cell culture medium (DMEM plus 10% FBS, with 200 μg/mL hygromycin) in 96-well flat-bottom plates and the plate is immediately swirled to ensure proper dispersal of cells, forming an even monolayer of cells. Cells are allowed to attach for at least 4-6 hours. Test compounds are serially diluted 3.16-fold in 100% DMSO to generate a 7-point concentration curve. A solution of test compound (1 μL, 200× in DMSO) is added to each cell-containing well and the plate is incubated for 24 hours in a cell culture incubator (37° C., 5% CO2, 100% relative humidity). 2 replicates are prepared for each test compound concentration. The cells are then lysed in Cells-To-Ct lysis buffer and the lysate is stored at −80° C.
Primer SMN Forward A (SEQ ID NO. 1) hybridizes to a nucleotide sequence in exon 7 (nucleotide 22 to nucleotide 40), primer SMN Reverse A (SEQ ID NO. 2) hybridizes to a nucleotide sequence in the coding sequence of Firefly luciferase, SMN Probe A (SEQ ID NO. 3) hybridizes to a nucleotide sequence in exon 7 (nucleotide 50 to nucleotide 54) and exon 8 (nucleotide 1 to nucleotide 21). The combination of these three oligonucleotides detects only SMN1 or SMN2 minigenes (RT-qPCR) and will not detect endogenous SMN1 or SMN2 genes.
The SMN forward and reverse primers are used at final concentrations of 0.4 μM. The SMN probe is used at a final concentration of 0.15 μM. The GAPDH primers are used at final concentrations of 0.2 μM and the probe at 0.15 μM.
The SMN2-minigene GAPDH mix (15 μL total volume) is prepared by combining 7.5 μL of 2× RT-PCR buffer, 0.4 μL of 25× RT-PCR enzyme mix, 0.75 μL of 20× GAPDH primer-probe mix, 4.0075 μL of water, 2 μL of 10-fold diluted cell lysate, 0.06 μL of 100 μM SMN forward primer, 0.06 μL of 100 μM SMN reverse primer, and […].
PCR is carried out at the following temperatures for the indicated time: Step 1: 48° C. (15 min); Step 2: 95° C. (10 min); Step 3: 95° C. (15 sec); Step 4: 60° C. (1 min); then repeat Steps 3 and 4 for a total of 40 cycles.
Each reaction mixture contains both SMN2-A minigene and GAPDH primers/probe sets (multiplex design), allowing simultaneous measurement of the levels of two transcripts.
Two SMN spliced products are generated from the SMN2 minigene. The first spliced product containing exon 7, corresponding to full length SMN2 mRNA, is referred to herein using the term “SMN2 minigene FL.” The second spliced product lacking exon 7 is referred to herein using the term “SMN2 minigene Δ7.”
The increase of SMN2 minigene FL mRNA relative to that in cells treated with vehicle control is determined from real-time PCR data using a modified ΔΔCt method (as described in Livak and Schmittgen, Methods, 2001, 25:402-8). The amplification efficiency (E) is calculated from the slope of the amplification curve for SMN2 minigene FL and GAPDH individually. The abundances of SMN2 minigene FL and GAPDH are then calculated as (1+E)^−Ct, where Ct is the threshold value for each amplicon. The abundance of SMN2 minigene FL is normalized to GAPDH abundance. The normalized SMN2 minigene FL abundance from test compound-treated samples is then divided by normalized SMN2 minigene FL abundance from vehicle-treated cells to determine the level of SMN2 FL mRNA relative to vehicle control.
For compounds of Formula (I) or a form thereof disclosed herein, Table 4 provides the […] for production of full length SMN2 mRNA that was obtained from the 7-point concentration data generated for each test compound according to the procedure of Biological Example 2. […]
On the technique in general: In qPCR the cycle at which signal appears reflects the starting amount.

The test system of experiment [2] is Smn protein in SMA patient fibroblast cells (GM03813). Nature of the experiment: Smn protein assay in cultured cells (SMN HTRF). The class given is cell-based, human. The conditions noted are these: SMA patient fibroblast cells, 48 hours; for EC1.5x for Smn protein expression: 7-point concentration curve, SMN HTRF, concentration producing 1.5 times Smn protein vs DMSO vehicle control; for maximum fold (Fold) increase of Smn protein: 7-point concentration data, fold relative to vehicle control. On the procedure:
The SMN HTRF (homogeneous time resolved fluorescence) assay is used to quantify the level of Smn protein in SMA patient fibroblast cells treated with test compounds.
Protocol. Cells are thawed and cultured in DMEM-10% FBS for 72 hours. Cells are trypsinized, counted and re-suspended to a concentration of 25,000 cells/mL in DMEM-10% FBS. The cell suspension is plated at 5,000 cells per well in a 96 well microtiter plate and incubated for 3 to 5 hours. […] Test compounds are serially diluted 3.16-fold in 100% DMSO to generate a 7-point concentration curve. 1 μL of test compound solution is transferred to cell-containing wells and cells are incubated for 48 hours in a cell culture incubator (37° C., 5% CO2, 100% relative humidity). Triplicate samples are set up for each test compound concentration. After 48 hours, the supernatant is removed from the wells and 25 μL of the RIPA lysis buffer, containing protease inhibitors, is added to the wells and incubated with shaking at room temperature for 1 hour. 25 μL of the diluent is added and then 35 μL of the resulting lysate is transferred to a 384-well plate, where each well contains 5 μL of the antibody solution (1:100 dilution of anti-SMN d2 and anti-SMN kryptate in SMN reconstitution buffer). The plate is centrifuged for 1 minute to bring the solution to the bottom of the wells, then incubated overnight at room temperature. Fluorescence for each well of the plate at 665 nm and 620 nm is measured on an EnVision multilabel plate reader (Perkin-Elmer).
The normalized fluorescence signal is calculated for each sample, Blank and vehicle control well by dividing the signal at 665 nm by the signal at 620 nm. Normalizing the signal accounts for possible fluorescence quenching due to the matrix effect of the lysate. The ΔF value (a measurement of Smn protein abundance as a percent value) for each sample well is calculated by subtracting the normalized average fluorescence for the Blank control wells from the normalized fluorescence for each sample well, then dividing this difference by the normalized average fluorescence for the Blank control wells and multiplying the resulting value by 100. The ΔF value for each sample well represents the Smn protein abundance from test compound-treated samples. The ΔF value for each sample well is divided by the ΔF value for the vehicle control wells to calculate the fold increase in Smn protein abundance relative to the vehicle control.
For compounds of Formula (I) or a form thereof disclosed herein, Table 9 provides the EC1.5× for Smn protein expression that was obtained from the 7-point concentration data generated for each test compound according to the procedure of Biological Example 7. The term “EC1.5× for Smn protein expression” is defined as that concentration of test compound that is effective in producing 1.5 times the amount of Smn protein in an SMA patient fibroblast cell compared to the amount produced from the DMSO vehicle control. An EC1.5× for Smn protein expression between >3 μM and ≤10 μM is indicated by one star (*), an EC1.5× between >1 μM and ≤3 μM is indicated by two stars (**), an EC1.5× between >0.3 μM and ≤1 μM is indicated by three stars (***) and an EC1.5x≤0.3 μM is indicated by four stars (****).
For compounds of Formula (I) or a form thereof disclosed herein, Table 10 provides the maximum fold (Fold) increase of Smn protein that was obtained from the 7-point concentration data generated for each test compound according to the procedure of Biological Example 7. A maximum fold increase of ≤1.2 is indicated by one star (*), a fold increase between >1.2 and ≤1.35 is indicated by two stars (**), a fold increase between >1.35 and ≤1.5 is indicated by three stars (***), a fold increase between >1.5 and ≤1.65 is indicated by four stars (****) and a fold increase >1.65 is indicated by five stars (*****).
(In TR-FRET formats the signal depends on donor and acceptor labels being close together.)

On to `Cc1cn2nc(-c3cc(=O)n4cc(N5CCNCC5)ccc4n3)cc2c(C)n1` [Compound 120, 2-(4,6-dimethylpyrazolo[1,5-a]pyrazin-2-yl)-7-(piperazin-1-yl)-4H-pyrido[1,2-a]pyrimidin-4-one], for which the EC (1.5-fold increase) in experiment [1] was under 0.1 µM. In experiment [2], the “EC1.5x for Smn protein expression” value is given as “**** (an EC1.5x≤0.3 μM is indicated by four stars (****))” and the “maximum fold (Fold) increase of Smn protein” value (“maximum fold (Fold) increase” for short) was “***** (a fold increase >1.65 is indicated by five stars (*****))”.
For `Cc1cn2nc(-c3cc(=O)n4cc(N5C[C@@H](C)N[C@@H](C)C5)ccc4n3)cc2c(C)n1` [Compound 131, 7-[(3R,5S)-3,5-dimethylpiperazin-1-yl]-2-(4,6-dimethylpyrazolo[1,5-a]pyrazin-2-yl)-4H-pyrido[1,2-a]pyrimidin-4-one], in experiment [1], the EC (1.5-fold increase) is under 0.1 µM. In experiment [2], the “EC1.5x for Smn protein expression” value is “** (an EC1.5× between >1 μM and ≤3 μM is indicated by two stars (**))”; the “maximum fold (Fold) increase” value was “*** (a fold increase between >1.35 and ≤1.5 is indicated by three stars (***))”.
As to `Cc1cn2nc(-c3cc(=O)n4cc(N5CCCNCC5)ccc4n3)cc2c(C)n1` [Compound 132, 7-(1,4-diazepan-1-yl)-2-(4,6-dimethylpyrazolo[1,5-a]pyrazin-2-yl)-4H-pyrido[1,2-a]pyrimidin-4-one], the EC (1.5-fold increase) in experiment [1] was under 0.1 µM. In experiment [2], the “EC1.5x for Smn protein expression” value is on record as “**** (an EC1.5x≤0.3 μM is indicated by four stars (****))” and the “maximum fold (Fold) increase” value is “***** (a fold increase >1.65 is indicated by five stars (*****))”.
On to `COc1cc(-c2cc(=O)n3cc(N4CCNCC4)ccc3n2)cc(F)c1OC` [Compound 145, 2-(3-fluoro-4,5-dimethoxyphenyl)-7-(piperazin-1-yl)-4H-pyrido[1,2-a]pyrimidin-4-one], for which the EC (1.5-fold increase) in experiment [1] fell in the range of 1 to 3 µM. For the same compound, the “maximum fold (Fold) increase” value in experiment [2] is reported as “* (A maximum fold increase of ≤1.2 is indicated by one star (*))”.
`Cc1nc2cc(-c3cc(=O)n4cc(N5CCN[C@@H](C)C5)ccc4n3)ccc2o1` [Compound 156, 2-(2-methyl-1,3-benzoxazol-5-yl)-7-[(3S)-3-methylpiperazin-1-yl]-4H-pyrido[1,2-a]pyrimidin-4-one]: the EC (1.5-fold increase) in experiment [1] fell in the range of 0.3 to 1 µM. For the same compound, the “maximum fold (Fold) increase” value in experiment [2] was “*** (a fold increase between >1.35 and ≤1.5 is indicated by three stars (***))”.
`COc1ccc(-c2cc(=O)n3cc(N4CCNCC4)cc(C)c3n2)cc1OC` [Compound 160, 2-(3,4-dimethoxyphenyl)-9-methyl-7-(piperazin-1-yl)-4H-pyrido[1,2-a]pyrimidin-4-one]: the EC (1.5-fold increase) in experiment [1] is under 0.1 µM. In experiment [2], the “EC1.5x for Smn protein expression” value is “*** (an EC1.5× between >0.3 μM and ≤1 μM is indicated by three stars (***))”; the “maximum fold (Fold) increase” value is “*** (a fold increase between >1.35 and ≤1.5 is indicated by three stars (***))”.
For the compound `COc1ccc(-c2cc(=O)n3cc(NC4CCNCC4)ccc3n2)cc1OC` [Compound 187, 2-(3,4-dimethoxyphenyl)-7-(piperidin-4-ylamino)-4H-pyrido[1,2-a]pyrimidin-4-one], the EC (1.5-fold increase) in experiment [1] fell in the range of 1 to 3 µM. Further, the “maximum fold (Fold) increase” value in experiment [2] was “** (a fold increase between >1.2 and ≤1.35 is indicated by two stars (**))”.
With `Cn1cc(-c2cc(=O)n3cc(N4CCNCC4)ccc3n2)cn1` [Compound 192, 2-(1-methyl-1H-pyrazol-4-yl)-7-(piperazin-1-yl)-4H-pyrido[1,2-a]pyrimidin-4-one], the EC (1.5-fold increase) in experiment [1] is 1 to 3 µM. Moreover, in experiment [2], the “EC1.5x for Smn protein expression” value was “** (an EC1.5× between >1 μM and ≤3 μM is indicated by two stars (**))”; the “maximum fold (Fold) increase” value is “***** (a fold increase >1.65 is indicated by five stars (*****))”.
Regarding `COc1ccc(-c2cc(=O)n3cc(N4CCC(N)CC4)ccc3c2)cc1F` [Compound 201, 7-(4-aminopiperidin-1-yl)-2-(3-fluoro-4-methoxyphenyl)-4H-quinolizin-4-one], the EC (1.5-fold increase) in experiment [1] is under 0.1 µM. Further, in experiment [2], the “EC1.5x for Smn protein expression” value was “*** (an EC1.5× between >0.3 μM and ≤1 μM is indicated by three stars (***))”; the “maximum fold (Fold) increase” value was “*** (a fold increase between >1.35 and ≤1.5 is indicated by three stars (***))”.
On to `COc1ccc(-c2cc(=O)n3cc(N4CCC(N(C)C)CC4)ccc3c2)cc1F` [Compound 203, 7-[4-(dimethylamino)piperidin-1-yl]-2-(3-fluoro-4-methoxyphenyl)-4H-quinolizin-4-one], for which the EC (1.5-fold increase) in experiment [1] was 1 to 3 µM. Besides, in experiment [2], the “maximum fold (Fold) increase” value is given as “* (A maximum fold increase of ≤1.2 is indicated by one star (*))”.
